PMC6491434 (Scientific Reports, 2019)

Tests used:
CDK9/T = target: T1, CDK9/T (Homo sapiens, UniProt P50750); experiment: protein kinase catalytic activity assay, CDK9/cyclin T; assay type: biochemical; conditions: read-out: IC50 towards CDK9/T
T1 construct: made in house

CK1 = experiment: protein kinase catalytic activity assay, CK1; assay type: biochemical; conditions: read-out: IC50 towards CK1
ABCB4-I490T = target: T2, ABCB4-I490T (Homo sapiens, UniProt P21439, I490T); experiment: Canalicular localisation of ABCB4-I490T by indirect immunofluorescence in HepG2 cells; assay type: cell-based; conditions: 25 µM
T2 construct: wild type (WT) ABCB4, isoform A (NM_000443.3), into pcDNA3 vector; expressed in transfected cells; host or cells: HepG2

ABCB4-I541F [1] = target: T3, ABCB4-I541F (Homo sapiens, UniProt P21439, I541F); experiment: ABCB4-mediated phosphatidylcholine secretion, HEK cells expressing ABCB4-I541F; assay type: cell-based; set-up: wild type (WT) ABCB4, isoform A (NM_000443.3), into pcDNA3 vector; expressed in transfected cells; host or cells: HEK-293 (immunoblot, PC secretion); conditions: 25 µM, vehicle 7.1 ± 0.8%
Experimental: (§1) Cyclosporin A (CsA) was from Santa Cruz Biotechnologies (Dallas, TX). […] Each compound was solubilized in dimethylsulfoxide (DMSO) as 1000X concentrated stock solutions in order to treat cells with 5 µM to 100 µM final concentrations, using DMSO as control vehicle at the same dilution (0.1% DMSO for all conditions). The cells were treated 24 hours post-transfection with these drugs during 16 hours, except for the viability assays for which cells were treated during three days. After drug treatment, cells were used for immunoanalyses, cell viability assays or PC secretion assays.
(§2) HEK cells were seeded in 0.01% poly-L-lysine (Sigma) pre-coated 6-well plates of 10 cm² area per well (1.3 × 10^6 cells per well). After transient transfection of the empty vector (control), plasmids encoding ABCB4-WT or its variants, cells were incubated during 24 hours at 37 °C in serum-free medium supplemented with 0.5 mM sodium taurocholate (Sigma) and 0.02% fatty acid–free bovine serum albumin (Sigma). Then, the secreted PC was quantified from the collected media using a fluoro-enzymatic assay previously described. Each condition was analysed in triplicate, after background subtraction, and results were normalized to the expression levels of ABCB4 determined by immunoblots of the corresponding cell lysates.

ABCB4-WT [2] = target: T4, ABCB4-WT (Homo sapiens, UniProt P21439); experiment: ABCB4-mediated phosphatidylcholine secretion, HEK cells expressing ABCB4-WT; assay type: cell-based; conditions: from dose-response curves of Fig. 4C, read-out: IC50 (µM) (min-max) on the PC secretion activity of ABCB4-WT
T4 construct: wild type (WT) ABCB4, isoform A (NM_000443.3), into pcDNA3 vector; expressed in transfected cells; host or cells: HEK-293
Experimental: as §1, §2

ABCB4-L556R = target: T5, ABCB4-L556R (Homo sapiens, UniProt P21439, L556R); experiment: Canalicular localisation of ABCB4-L556R by indirect immunofluorescence in HepG2 cells; assay type: cell-based; conditions: 25 µM
T5 construct: wild type (WT) ABCB4, isoform A (NM_000443.3), into pcDNA3 vector; expressed in transfected cells; host or cells: HepG2

CDK2/A = target: T6, CDK2/A (Homo sapiens, UniProt P24941); experiment: protein kinase catalytic activity assay, CDK2/cyclin A; assay type: biochemical; conditions: read-out: IC50 towards CDK2/A
T6 construct: made in house

ABCB4-I541F [3] = target: T3, ABCB4-I541F; experiment: Maturation of ABCB4-I541F by immunoblot in HEK cells; assay type: cell-based; set-up: wild type (WT) ABCB4, isoform A (NM_000443.3), into pcDNA3 vector; expressed in transfected cells; host or cells: HEK-293 (immunoblot, PC secretion); conditions: 100 µM, 16 hours
Experimental: For transient transfection of HEK cells, they were seeded at subconfluent levels in the adequate tissue culture wells at least six hours before transfection. Turbofect (Thermo Fisher scientific) was used at a ratio of reagent:DNA of 2:1 according to manufacturer’s instructions. For transient transfection of HepG2 cells, subconfluent cultures were seeded in the adequate culture wells 24 hours before transfection. Lipofectamine 3000 (Thermo Fisher Scientific) was used at a ratio of reagent:DNA of 1.5:1 according to manufacturer’s instructions. Cell treatments and processing for further analyses were performed at least 16 hours post-transfection.
as §1
Western blots and indirect immunofluorescence were performed as previously described[9],[50]. […] Signals were detected with ECL prime western blotting detection reagent (GE Healthcare, Velizy-Villacoublay, France) and quantified in the linear range of detection using ImageJ 1.50i software (U.S. National Institutes of Health, Bethesda, MD).

CDK5/p25 = target: T7, CDK5/p25 (Homo sapiens, UniProt Q00535); experiment: protein kinase catalytic activity assay, CDK5/p25; assay type: biochemical; conditions: read-out: IC50 towards CDK5/p25
T7 construct: made in house

[4] = Cell viability, MTT assay; conditions: human
Experimental: as §1
(§3) Cell viability was assessed by the conversion of MTT (3-[4,5-dimethylthiazol-2-yl]-2,5 diphenyl tetrazolium bromide) into formazan crystals by living cells, as described. In brief, HEK cells were seeded in 96-well plates in triplicate for each tested condition, including controls (no cells, no treatment, treatment with vehicle). […] These conditions were optimized in order to maintain the absorbance at 540 nm of the blanks below 0.1 OD unit (negative controls) and the absorbance at 540 nm for untreated cells between 1.0 and 1.3 OD units (positive controls). Then culture media were gently washed out, cells were lysed in 100 µL of pure DMSO and absorbance at 540 nm was measured using a multiplate cytofluorimeter SpectraFluor from Tecan (Männedorf, Switzerland). Cell viability was calculated for each triplicate after background subtraction and expressed as percentage of the mean for cells treated with vehicle only.

HEK cells = experiment: Cell viability, MTT assay; conditions: three days
Experimental: as §1, §3

ABCB4-I541F [5] = target: T3, ABCB4-I541F; set-up: wild type (WT) ABCB4, isoform A (NM_000443.3), into pcDNA3 vector; expressed in transfected cells; host or cells: HEK-293 (immunoblot, PC secretion); HepG2 (immunofluorescence); method as in PMID 22184139, PMID 19185004; conditions: cited from earlier work
ABCB4-WT [6] = target: T4, ABCB4-WT; set-up: method as in PMID 24806754; conditions: cited from earlier work

T7 sequence (Q00535 whole entry, species assumed): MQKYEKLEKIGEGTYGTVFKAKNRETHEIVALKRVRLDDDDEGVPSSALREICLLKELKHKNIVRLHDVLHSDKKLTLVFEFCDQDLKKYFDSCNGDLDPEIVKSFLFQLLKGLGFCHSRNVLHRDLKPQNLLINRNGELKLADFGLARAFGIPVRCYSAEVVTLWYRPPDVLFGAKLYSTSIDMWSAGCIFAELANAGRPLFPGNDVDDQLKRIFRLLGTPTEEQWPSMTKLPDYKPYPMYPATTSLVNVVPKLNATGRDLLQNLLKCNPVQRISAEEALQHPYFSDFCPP
T7 sequence (Q15078 99-307 partner limits assumed, species assumed): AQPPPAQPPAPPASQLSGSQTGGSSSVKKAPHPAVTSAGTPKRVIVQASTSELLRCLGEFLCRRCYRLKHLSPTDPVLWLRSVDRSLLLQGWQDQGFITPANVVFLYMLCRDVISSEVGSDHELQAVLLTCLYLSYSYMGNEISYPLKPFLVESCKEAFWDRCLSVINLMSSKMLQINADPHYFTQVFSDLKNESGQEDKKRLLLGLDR
T3 sequence (P21439 1-1279 isoform P21439-2 I541F): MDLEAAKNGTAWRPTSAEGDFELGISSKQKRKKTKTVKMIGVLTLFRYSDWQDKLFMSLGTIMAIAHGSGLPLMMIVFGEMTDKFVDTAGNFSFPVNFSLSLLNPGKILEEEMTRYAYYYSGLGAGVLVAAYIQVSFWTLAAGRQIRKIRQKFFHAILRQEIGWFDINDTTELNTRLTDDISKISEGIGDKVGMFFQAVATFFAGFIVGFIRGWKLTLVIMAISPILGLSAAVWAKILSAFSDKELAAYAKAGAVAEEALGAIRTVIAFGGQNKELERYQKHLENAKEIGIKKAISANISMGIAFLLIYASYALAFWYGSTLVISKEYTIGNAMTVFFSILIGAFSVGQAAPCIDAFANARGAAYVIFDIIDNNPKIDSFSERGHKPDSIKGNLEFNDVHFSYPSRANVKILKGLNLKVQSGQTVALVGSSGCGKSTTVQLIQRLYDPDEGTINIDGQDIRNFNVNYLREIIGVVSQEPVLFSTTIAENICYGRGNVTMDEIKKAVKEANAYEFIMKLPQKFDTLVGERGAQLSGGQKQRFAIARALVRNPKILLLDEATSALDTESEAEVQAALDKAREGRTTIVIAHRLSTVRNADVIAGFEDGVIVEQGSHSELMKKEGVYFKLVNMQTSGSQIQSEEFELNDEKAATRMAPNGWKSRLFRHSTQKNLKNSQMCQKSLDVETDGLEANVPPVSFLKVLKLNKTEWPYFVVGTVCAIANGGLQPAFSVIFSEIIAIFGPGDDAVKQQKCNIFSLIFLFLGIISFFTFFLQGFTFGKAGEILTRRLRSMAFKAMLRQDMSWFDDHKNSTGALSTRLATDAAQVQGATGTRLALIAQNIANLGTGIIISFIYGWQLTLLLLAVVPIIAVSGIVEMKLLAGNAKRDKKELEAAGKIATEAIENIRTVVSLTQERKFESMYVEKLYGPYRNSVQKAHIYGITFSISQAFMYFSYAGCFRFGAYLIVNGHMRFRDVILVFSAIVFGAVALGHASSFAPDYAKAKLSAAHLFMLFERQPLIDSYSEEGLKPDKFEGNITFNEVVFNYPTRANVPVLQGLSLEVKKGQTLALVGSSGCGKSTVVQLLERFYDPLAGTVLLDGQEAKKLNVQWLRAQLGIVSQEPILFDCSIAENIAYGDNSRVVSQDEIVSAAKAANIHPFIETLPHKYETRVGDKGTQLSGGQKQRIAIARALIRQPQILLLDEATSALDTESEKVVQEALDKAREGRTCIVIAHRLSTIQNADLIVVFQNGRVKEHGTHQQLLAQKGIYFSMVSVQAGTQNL
T1 sequence (P50750 whole entry, species assumed): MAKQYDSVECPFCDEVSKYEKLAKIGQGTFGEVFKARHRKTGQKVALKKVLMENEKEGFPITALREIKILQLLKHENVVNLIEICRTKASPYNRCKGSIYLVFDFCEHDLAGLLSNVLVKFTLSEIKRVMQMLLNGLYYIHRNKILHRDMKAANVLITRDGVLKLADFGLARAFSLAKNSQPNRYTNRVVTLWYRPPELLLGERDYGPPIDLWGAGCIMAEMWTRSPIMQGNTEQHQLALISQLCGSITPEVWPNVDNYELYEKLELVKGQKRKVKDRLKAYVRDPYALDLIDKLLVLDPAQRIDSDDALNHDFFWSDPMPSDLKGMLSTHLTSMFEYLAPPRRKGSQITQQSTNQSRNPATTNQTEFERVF
T1 sequence (O60563 whole entry partner, species assumed): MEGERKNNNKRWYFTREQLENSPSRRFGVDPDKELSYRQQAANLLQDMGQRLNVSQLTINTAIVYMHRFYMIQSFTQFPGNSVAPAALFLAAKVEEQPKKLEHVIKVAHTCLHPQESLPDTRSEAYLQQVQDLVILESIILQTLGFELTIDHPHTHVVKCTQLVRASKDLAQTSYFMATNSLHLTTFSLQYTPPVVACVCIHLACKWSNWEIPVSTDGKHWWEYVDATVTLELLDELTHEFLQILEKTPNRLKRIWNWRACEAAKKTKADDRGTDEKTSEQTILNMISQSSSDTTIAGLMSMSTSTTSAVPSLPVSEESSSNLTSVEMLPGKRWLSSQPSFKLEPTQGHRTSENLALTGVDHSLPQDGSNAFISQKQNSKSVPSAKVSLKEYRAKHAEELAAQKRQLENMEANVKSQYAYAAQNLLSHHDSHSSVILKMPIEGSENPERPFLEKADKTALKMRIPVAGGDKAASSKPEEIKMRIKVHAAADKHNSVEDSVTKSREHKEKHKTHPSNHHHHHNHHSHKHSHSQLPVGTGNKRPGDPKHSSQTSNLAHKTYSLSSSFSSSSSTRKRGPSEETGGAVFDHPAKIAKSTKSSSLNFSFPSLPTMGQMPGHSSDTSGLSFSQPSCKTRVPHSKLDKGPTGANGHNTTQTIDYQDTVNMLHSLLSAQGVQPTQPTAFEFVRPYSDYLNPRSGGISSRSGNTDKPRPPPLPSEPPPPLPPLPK
T4 sequence (P21439 1-1279 isoform P21439-2): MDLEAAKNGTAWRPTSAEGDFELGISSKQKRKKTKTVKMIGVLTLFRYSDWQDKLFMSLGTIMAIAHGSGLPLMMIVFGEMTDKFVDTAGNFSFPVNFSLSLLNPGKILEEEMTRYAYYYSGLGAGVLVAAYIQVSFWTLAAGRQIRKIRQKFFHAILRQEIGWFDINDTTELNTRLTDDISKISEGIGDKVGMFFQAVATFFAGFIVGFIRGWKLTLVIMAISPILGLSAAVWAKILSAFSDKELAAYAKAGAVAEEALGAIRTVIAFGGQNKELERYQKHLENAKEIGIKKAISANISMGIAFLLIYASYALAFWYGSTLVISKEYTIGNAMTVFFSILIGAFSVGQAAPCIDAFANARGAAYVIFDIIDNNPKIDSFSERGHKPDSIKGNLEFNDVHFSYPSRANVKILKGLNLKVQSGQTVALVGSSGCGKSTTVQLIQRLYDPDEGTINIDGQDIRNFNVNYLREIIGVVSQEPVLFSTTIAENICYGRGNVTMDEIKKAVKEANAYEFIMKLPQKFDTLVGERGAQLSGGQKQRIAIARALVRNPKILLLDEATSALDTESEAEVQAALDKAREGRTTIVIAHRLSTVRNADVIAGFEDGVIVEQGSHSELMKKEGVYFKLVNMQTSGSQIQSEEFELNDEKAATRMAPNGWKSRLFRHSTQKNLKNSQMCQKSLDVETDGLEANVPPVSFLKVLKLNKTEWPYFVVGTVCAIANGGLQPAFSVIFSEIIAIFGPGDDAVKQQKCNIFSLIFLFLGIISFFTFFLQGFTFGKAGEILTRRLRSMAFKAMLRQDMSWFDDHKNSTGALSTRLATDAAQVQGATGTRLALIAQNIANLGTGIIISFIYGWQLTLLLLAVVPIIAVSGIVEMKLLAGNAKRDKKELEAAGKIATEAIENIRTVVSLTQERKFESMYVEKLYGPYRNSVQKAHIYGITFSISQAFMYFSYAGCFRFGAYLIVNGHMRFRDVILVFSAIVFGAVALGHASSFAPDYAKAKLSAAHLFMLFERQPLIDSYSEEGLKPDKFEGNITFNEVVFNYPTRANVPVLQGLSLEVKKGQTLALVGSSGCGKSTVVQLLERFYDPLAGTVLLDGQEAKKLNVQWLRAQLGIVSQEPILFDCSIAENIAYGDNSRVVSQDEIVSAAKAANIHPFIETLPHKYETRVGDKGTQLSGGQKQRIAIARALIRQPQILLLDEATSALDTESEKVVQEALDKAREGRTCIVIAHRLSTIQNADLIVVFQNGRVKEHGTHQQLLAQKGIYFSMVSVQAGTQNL

Compound	IC50 (CDK9/T) [µM]	IC50 (CK1) [µM]	IC50 (CDK2/A) [µM]	maturation of ABCB4-I541F (expression of the mature form) (ABCB4-I541F [3])	IC50 (CDK5/p25) [µM]	other results
CC[C@@H](Nc1nc(NCc2ccccc2)c2ncn(C(C)C)c2n1)C(=O)O [M3, reference compound]	> 33	> 33	–	–	–	–
CC(Nc1nc(NCc2ccccc2)c2ncn(C(C)C)c2n1)C(=O)O (stereo not drawn) [MRT2-163]	–	20	–	–	–	–
CC(C)n1cnc2c(NCc3ccccc3)nc(N[C@@H](CO)C(=O)O)nc21 [MRT2-164]	17	28	–	–	–	–
CC[C@@H](Nc1nc(NCc2cccc(F)c2)c2ncn(C3CCCC3)c2n1)C(=O)O [MRT2-235]	7	7	5.9	significantly increase the expression of a mature form of ABCB4-I541F	8.3	relocalisation of ABCB4-I490T at bile canaliculi (ABCB4-I490T): partially relocalised at bile canaliculi; PC secretion activity of ABCB4-I541F (% of ABCB4-WT activity) (ABCB4-I541F [1]): 19.0 ± 3.4%; IC50 (ABCB4-WT [2]): 21 µM; relocalisation of ABCB4-L556R at bile canaliculi (ABCB4-L556R): partially relocalised at bile canaliculi
CC[C@@H](Nc1nc(NCc2cccc(Cl)c2)c2ncn(C3CCCC3)c2n1)C(=O)O [MRT2-237]	9	3.33	3.4	significantly increase the expression of a mature form of ABCB4-I541F	7.7	relocalisation of ABCB4-I490T at bile canaliculi (ABCB4-I490T): partially relocalised at bile canaliculi; PC secretion activity of ABCB4-I541F (% of ABCB4-WT activity) (ABCB4-I541F [1]): 13.0 ± 3.5%; IC50 (ABCB4-WT [2]): 29.3 µM; relocalisation of ABCB4-L556R at bile canaliculi (ABCB4-L556R): partially relocalised at bile canaliculi
CC[C@@H](Nc1nc(NCc2cccc(C(F)(F)F)c2)c2ncn(C3CCCC3)c2n1)C(=O)O [MRT2-239]	20	4	8	significantly increase the expression of a mature form of ABCB4-I541F	11	–
CC[C@@H](Nc1nc(NCc2ccc(F)c(F)c2)c2ncn(C3CCCC3)c2n1)C(=O)O [MRT2-241]	8	11	5.1	significantly increase the expression of a mature form of ABCB4-I541F	17	–
CC[C@@H](Nc1nc(NCc2ccc(Cl)c(F)c2)c2ncn(C3CCCC3)c2n1)C(=O)O [MRT2-243]	5	6.1	3	significantly increase the expression of a mature form of ABCB4-I541F	6.3	relocalisation of ABCB4-I490T at bile canaliculi (ABCB4-I490T): partially relocalised at bile canaliculi; PC secretion activity of ABCB4-I541F (% of ABCB4-WT activity) (ABCB4-I541F [1]): 22.5 ± 6.2%; IC50 (ABCB4-WT [2]): 17.6 µM; relocalisation of ABCB4-L556R at bile canaliculi (ABCB4-L556R): partially relocalised at bile canaliculi
CC[C@@H](Nc1nc(NCc2ccccc2)c2ncn(C3CCCC3)c2n1)C(=O)O [MRT2-245]	28	17	6.3	significantly increase the expression of a mature form of ABCB4-I541F	15	–
CC[C@@H](Nc1nc(NCc2cccc(C(F)(F)F)c2)c2ncn(C(C)C)c2n1)C(=O)O [MRT2-249]	> 33	5	9	significantly increase the expression of a mature form of ABCB4-I541F	27	–
CC[C@H](CO)Nc1nc(NCc2ccccc2)c2ncn(C(C)C)c2n1 [Roscovitine, (R)-roscovitine]	–	–	–	–	–	viability at 72 h, 25 µM [4]: < 60%; cell viability after treatment at 100 µM (HEK cells; 100 µM, HEK cells expressing ABCB4-WT): massive cell death; cytotoxicity (HEK cells; increasing concentrations, HEK cells): important dose-dependent cytotoxicity
Cyclosporin A [CsA]	–	–	–	–	–	rescue of maturation and canalicular localisation of ABCB4-I541F (ABCB4-I541F [5]): partially rescued; effect on the PC secretion activity of ABCB4 (ABCB4-WT [6]): inhibits the PC secretion activity of ABCB4
